Values belong to the sequence of their own block, whether it stands above or below them.
Target: T1, MyD88^TIR (Homo sapiens, UniProt Q99836)
T1 construct: MyD88 (residues 148–296); 6xHis; made in house; host or cells: E. coli BL21 (DE3)
Assay: T‐Surf phage library (P8 and P3) selection against MyD88^TIR, four rounds, NGS read counts
Assay type: binding
Conditions: for P3_MyD88 Rank (after) / P3_MyD88 Rank (before): P3 library; for P8_MyD88 Rank (after) / P8_MyD88 Rank (before): P8 library; for Population: P8_MyD88 pool: P8 T-Surf phage library, 4th round of selection against MyD88 TIR, share of NGS reads
Procedure: T‐Surf libraries were screened against the immobilized TIR domains of two major human TLR adaptor proteins, MAL^TIR and MyD88^TIR, allowing cross‐species selection of TIR‐binding motifs with 190 946 TIR‐derived peptides in a single binding assay (Scheme 1). Enriched phage pools from the fourth round of selection were analyzed using NGS after barcoding the peptide‐coding regions of the phage pools.
Phage display screening was performed by coating two wells of a 96‐well plate (Maxisorp, Thermo Fisher Scientific) with 100 µL of 5 µg mL^−1 TIR domains overnight; then, the coated wells were blocked with 200 µL of blocking buffer (0.2% BSA in PBS) and set aside for 1 h at 4 °C with gentle shaking. Next, 100 µL of the phage library was added to the wells and incubated for 1 h at room temperature (RT; 20 – 22 °C) with gentle shaking. The plate was washed four times with PBS containing 0.5% Tween‐20; the bound phages were eluted by adding 100 µL of 100 mM HCl to each well. The elute was neutralized with 10 µL of 1.0 M Tris‐HCl (pH 11.0). E. coli TG1 cells were grown to the log phase (A600 = ≈0.6), and 1 mL of the culture was incubated with 100 µL of the eluted phages for 30 min at 37 °C, with shaking at 200 rpm. Next, 1 µL of M13KO7 helper phages was added, followed by incubation for 45 min at 37 °C, with shaking. Subsequently, the cells were transferred to 25 mL of 2× yeast extract tryptone/carbenicillin/kanamycin medium and incubated overnight at 37 °C with shaking at 200 rpm. The amplified phages were precipitated with 20% PEG‐8000/2.5 M NaCl to be used for the next round of selection.
The naïve T‐Surf libraries in P8 and P3 and the enriched phage pools after four rounds were barcoded for NGS as previously described.^[ [59] ^] Briefly, 5 µL of the phage pool was used as a template for 20 cycles of a 50 µL PCR reaction using […] each of forward and reverse barcoded primers and PrimeSTAR Max DNA Polymerase. The PCR products were purified using Expin Gel SV (GeneAll). The NGS samples were quantified using qPCR, following the qPCR Quantification Protocol Guide (KAPA Library Quantification kits for Illumina Sequencing Platform), and qualified using the TapeStation High Sensitivity D1000 ScreenTape (Agilent Technologies). The indexed libraries were further sequenced by Macrogen (Seoul, Republic of Korea) using the NovaSeq platform (Illumina) with 100 bp paired‐end reads. The reads were demultiplexed by barcodes and filtered for an average Phred quality score of at least 30, followed by trimming the flanking consensus sequences using Cutadapt (version 2.3). Peptide sequence populations were analyzed according to the read counts.

[1] = selection against MyD88, rank by count after grouping
[2] = selection against MyD88, rank by count before grouping
[3] = P3_MyD88: rank by count after grouping
[4] = P3_MyD88: rank by count before grouping
[5] = selection against MyD88 TIR, rank by count after grouping
[6] = selection against MyD88 TIR, rank by count before grouping
[7] = 4R selection against MyD88, rank after grouping
[8] = 4R selection against MyD88, rank before grouping
[9] = selection against MyD88, rank after grouping
[10] = selection against MyD88, rank before grouping
[11] = P8_MyD88: rank by count after grouping
[12] = P8_MyD88: rank by count before grouping

T1 sequence (Q99836 148-296): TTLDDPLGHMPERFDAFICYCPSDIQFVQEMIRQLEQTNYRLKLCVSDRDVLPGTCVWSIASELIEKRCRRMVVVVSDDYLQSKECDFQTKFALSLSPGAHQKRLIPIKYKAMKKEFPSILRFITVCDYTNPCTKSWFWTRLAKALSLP

P3_MyD88 Rank (after) [1]: 731 | P3_MyD88 Rank (before) [2]: 2715
Sequence: PEKDNGGENAFINTL

Rank (after) [3]: 180 | Rank (before) [4]: 1650
Sequence: YTALTNRGFLTFRDNA

P3_MyD88 Rank (after) [5]: 195 | P3_MyD88 Rank (before) [6]: 1127
Sequence: PSEVRNRPAAWRKRL

P3_MyD88 Rank (after) [1]: 692 | P3_MyD88 Rank (before) [2]: 1481
Sequence: YAFTCHLHRYLVQRCV

P3_MyD88 Rank (after) [7]: 640 | P3_MyD88 Rank (before) [8]: 1424
Sequence: WIWEKLKYALPHRYEP

P3_MyD88 Rank (after) [7]: 641 | P3_MyD88 Rank (before) [8]: 2309
Sequence: LVAHEITKKLKSFATI

P8_MyD88 Rank (after) [1]: 706 | P8_MyD88 Rank (before) [2]: 1619
Sequence: WDFASNMEQFWIVCI

P8_MyD88 Rank (after) [7]: 648 | P8_MyD88 Rank (before) [8]: 3604
Sequence: QQISLVQLKVLEESHV

Rank (after) [3]: 481 | Rank (before) [4]: 2231
Sequence: ESILNHMRRSSQSIAN

Rank (after) [3]: 158 | Rank (before) [4]: 3187
Sequence: SSFREGLWRLQELSKT

P3_MyD88 Rank (after) [9]: 532 | P3_MyD88 Rank (before) [10]: 3499
Sequence: NQWRNALTAAANLIGR

Rank (after) [3]: 425 | Rank (before) [4]: 3599
Sequence: KARQFGALREEKLRAA

P3_MyD88 Rank (after) [7]: 612 | P3_MyD88 Rank (before) [8]: 2460
Sequence: LKCCYPYFWSKLRYAM

P3_MyD88 Rank (after) [9]: 539 | P3_MyD88 Rank (before) [10]: 1562
Sequence: YLRWGYPWFGDRLRFA

Rank (after) [3]: 105 | Rank (before) [4]: 919
Sequence: GIFREGLWRLLELSKK

Rank (after) (P8_MyD88: rank by NGS read count after grouping): 988 | Rank (before) (P8_MyD88: rank by NGS read count before grouping): 1523
Sequence: WALDDLLQILQARELF

P8_MyD88 Rank (after) [1]: 683 | P8_MyD88 Rank (before) [2]: 2333
Sequence: ASSPWALYELVEILTA

Rank (after) [11]: 426 | Rank (before) [12]: 3247
Sequence: LGYHWIAWECFVGIED

Rank (after) [11]: 455 | Rank (before) [12]: 3496
Sequence: PQELEWFHKRLVRLIL

P3_MyD88 Rank (after) [5]: 191 | P3_MyD88 Rank (before) [6]: 3251
Sequence: SSFSEGLWRLLELRKK

P8_MyD88 Rank (after) [5]: 244 | P8_MyD88 Rank (before) [6]: 2882
Sequence: DPQDLEWFYERLVSLFL

Rank (after) [11]: 189 | Rank (before) [12]: 243
Sequence: ASSSFALDQLSYFLSL

Rank (after) [11]: 125 | Rank (before) [12]: 134 | Population: 0.0131%
Sequence: NLSGWHILDGFLFDEF

P3_MyD88 Rank (after) [7]: 599 | P3_MyD88 Rank (before) [8]: 2180
Sequence: EWMREQRRPALKERLP

P8_MyD88 Rank (after) [9]: 560 | P8_MyD88 Rank (before) [10]: 3298
Sequence: LGYHWMGWEYFVGIED

P3_MyD88 Rank (after) [1]: 728 | P3_MyD88 Rank (before) [2]: 1459
Sequence: YYLDPSHLRKQSGESERL

P8_MyD88 Rank (after) [1]: 720 | P8_MyD88 Rank (before) [2]: 1891
Sequence: YASSSWALDELLQILW

P3_MyD88 Rank (after) [1]: 701 | P3_MyD88 Rank (before) [2]: 3513
Sequence: NQWRNALTAAANLGGL

P3_MyD88 Rank (after) [9]: 557 | P3_MyD88 Rank (before) [10]: 3552
Sequence: KQWRNALTAEANLSGW

Rank (after) [11]: 110 | Rank (before) [12]: 116 | Population: 0.02%
Sequence: WLESVLEDKFGYSLAL

P3_MyD88 Rank (after) [7]: 665 | P3_MyD88 Rank (before) [8]: 3277
Sequence: SSIREGLWRQLELSKK

Rank (after) [3]: 469 | Rank (before) [4]: 3286
Sequence: RERPVGAQRGVRSLAT

P3_MyD88 Rank (after) [9]: 528 | P3_MyD88 Rank (before) [10]: 3131
Sequence: SSFRGGLWRLLELRKE

Rank (after) [11]: 141 | Rank (before) [12]: 155 | Population: 0.01%
Sequence: VRHTFAGYLYDALNRL

Rank (after) [11]: 444 | Rank (before) [12]: 1582
Sequence: WDFASDMEQVWDRLYY

P8_MyD88 Rank (after) [7]: 653 | P8_MyD88 Rank (before) [8]: 3860
Sequence: NYTSSSWALDEQWNIF

P8_MyD88 Rank (after) [1]: 690 | P8_MyD88 Rank (before) [2]: 3664
Sequence: MFGGDTFHDFLDLLA

P8_MyD88 Rank (after) [1]: 746 | P8_MyD88 Rank (before) [2]: 2543
Sequence: DYASNTFLLRELLQIA

Rank (after) [11]: 115 | Rank (before) [12]: 123 | Population: 0.0173%
Sequence: WALNELLEILKAREDI

P3_MyD88 Rank (after) [9]: 562 | P3_MyD88 Rank (before) [10]: 3219
Sequence: SSFREGMWRLMVLSKK

— paper PMC11714206, “Massively Parallel Screening of Toll/Interleukin‐1 Receptor (TIR)‐Derived Peptides Reveals Multiple Toll‐Like Receptors (TLRs)‐Targeting Immunomodulatory Peptides” (Advanced Science, 2024)
